This passage reports IC50 results from patent publication US12516038B2, “Inhibitors of antigen presentation by HLA-DR” (Janssen Pharmaceutica NV, priority 2020, dated 2026).

One test addresses HLA-DRB1*0401 (Homo sapiens (Human), UniProt P01903+P01911, A100K/A169T/DEL228-266/F76Y/I96L/K127E/L162R/M171V/N62H/P40V/Q125Y/R42H/S133A/S149N/S66Y/V115G/V209L/W38E). Kind of test: HLA-DR4 HTRF assay. The class given is binding. The following applies: inhibition of loading of Alexa Fluor 647-labeled Cit-CII peptide onto HLA-DR4 (CLIP cleaved). The text has this: (§1) The screening was made through two sets of HLA-DR/peptide-dependent assays: a peptide-dependent Homogeneous Time Resolved Fluorescence (HTRF) binding assay followed by an HLA-DR dependent, peptide-specific T cell functional assay (HLA-DR4-restricted peptide-specific T cell-based assay hybridoma assay). The HTRF binding assay was designed to measure the ability of the small molecule to inhibit the loading of a fluorescently labeled high-affinity peptide onto HLA-DR peptide binding groove. The peptide-specific T cell functional assay assesses T cell activation resulting from proper peptide presentation onto HLA-DR expressed on the surface of the antigen-presenting cells to the T cell and is used to screen compounds able to inhibit such HLA-DR/peptide-dependent T cell activation.
The HLA-DR4 HTRF assay is based on HTRF technology and designed to measure ability of compounds to prevent loading of high-affinity Alexa Fluor 647-labeled Citrullinated Collagen 111236-1249 peptide (named Cit-CII/AF647, aa1236-1249, LQYM-Cit-ADQAAGGLR; Alexa Fluor 647 dye commercially available from Invitrogen) onto HLA-DRB1*0401. The HTRF assay technology is based on the energy transfer between two fluorophores, a donor and an acceptor, when in close proximity. The HLA-DR4 protein construct was uniquely designed for this assay and has (i) the α and […] subunits fused to human Fc chains and (ii) the invariant chain-associated peptide (CLIP peptide, aa85-101), the universal moderate/low-affinity HLA-DR binder, attached to the beta chain through a HRV3C protease-cleavable linker.
Because of the low stability of peptide free HLA-DR4 heterodimer, the construct was purified and delivered with CLIP peptide attached to the N-terminal of the β chain. The HLA-DR4 heterodimer was pre-treated with 3 μL HRV3C protease (Novagen E71493-3) (˜2 U/μL) per mg of the cleavable protein to cleave CLIP peptide and incubated overnight (>16 hrs) at 4° C. This method yielded at least 80% cleavage and allowed the CLIP peptide to be potentially exchanged with the fluorescently labeled high affinity cit-CII1236-1249 peptide. A batch of […] protein with CLIP cleaved was prepared for multiple experiments and was stable for several months when stored at 4° C.
In this assay, anti-human Fc antibody labeled with Tb-Cryptate probe was used as the donor (commercially available from Cisbio—PAb Anti-human IgG-Tb Cryptate, Cat #61HFCTAB) and high affinity peptide Citrullinated CII (cit-CII) labeled with Alexa 647 fluorophore was utilized as the acceptor. Inhibitors of the exchange of the pre-cleaved CLIP peptide for the high affinity cit-CII1236-1249 peptide onto HLA-DRB1*04:01 caused a decrease in HTRF signal as measured by the ratio of the 665 nm/620 nm emitted signal. Screening compounds were robotically pre-dispensed (150 nL, Hummingbird, DigiLab/CyBio AG) onto black, round bottom, nontreated, 1536-well assay plates (Corning #3939), were incubated with 3 nM HLA-DR4 (with CLIP cleaved) plus 1 nM Human IgG-Tb (anti-Fc-Tb) Antibody for 45 min prior to addition of 40 nM Cit-CII peptide labeled with Alexa-647. The negative control was DMSO plus 1 nM Human IgG-Tb (anti-Fc-Tb) Antibody, incubated for 45 minutes before addition of 40 nM Cit-CII peptide labeled with Alexa-647. The positive control was DMSO plus 3 nM HLA-DR4 (with CLIP cleaved) plus 1 nM Human IgG-Tb (anti-Fc-Tb) Antibody with 40 nM Cit-CII peptide labeled with Alexa-647 added after a 45-minute incubation. Plates were centrifuged at 1000 rpm for 1 minute and then incubated at 37° C., at 90% relative humidity for 90 minutes. After incubation, plates were read on a spectrophotometer, the Pherastar FS (BMG Labtech), in HTRF mode. The HTRF ratio as well as percent inhibition was calculated. Curve fitting and IC50 calculation for dose response data was performed by Microsoft Excel, 3DX (Janssen proprietary software) or Graphpad Prism (Graphpad Software, San Diego, CA). […]
(In general: TR-FRET usually uses a lanthanide donor and a delayed reading to cut background.)

The test system of test [1] is HLA-DR4 restricted mouse T cell hybridoma line (DR4.CII.36.8) with HLA-DRB1*04:01-expressing Boleth cells. As to the kind of experiment: HLA-DR4-restricted peptide-specific T cell-based assay (hybridoma assay). The settings on record: Mus musculus, T-cell, 6 h, inhibition of IL-2 production, CII259-273 peptide presented by Boleth cells.
Excerpt: as §1
HLA-DR4-Restricted Peptide-Specific T Cell-Based Assay (Hybridoma Assay)
The hybridoma assay was used to measure compound inhibition of TL-2 production from an HLA-DR4 restricted mouse T cell hybridoma line (DR4.CII.36.8) that was antigen-specific for collagen II259-273 (CII259-273) peptide when presented with an HLA-DR4 expressing Antigen Presenting Cell (APC) cell line (i.e., Boleth).
To the HLA-DRB1*04:01-expressing B cell line (Boleth cell line from International Histocompatibility Working Group (IHWG), ref #IHW09031) was presented the collagen II 259-273 peptide (CII259-273, GIAGFKGEQGPKGEP) to mouse T cell hybridoma (DR4.CII.36.8 T cell hybridoma; clone 36.8, expressing a CII259-273-specific, HLA-DRB1*04:01-restricted T cell receptor). Upon proper CII259-273 peptide presentation, the T cell hybridoma was activated and thus produced IL-2 cytokine, whose level in the cell culture supernatant was detected using mouse IL-2 AlphaLISA kit (Perkin Elmer, Cat: AL511F).
This assay was performed in a 384-well plate (polypropylene V-bottom Greiner bio-one, ref #784075) by: (i) pre-incubation of 20 μL of 1.25 million/mL Boleth cells (25,000 cells) resuspended in DMEM/1% fetal calf serum (FCS; Gibco, ref #16140-071) with 20 μL of 2.5× final concentration of compound of interest in DMEM/1% serum/0.75% DMSO at 37° C. for 1 hr in the incubator, then (ii) 10 μL of 5 million/mL (50,000 cells) DR4.CII.36.8 T cell hybridoma cells resuspended in DMEM/1% FCS was added and incubated for 6 h at 37° C. in the incubator. Supernatant was then collected and mouse IL-2 detected using AlphaLISA kit (ref #AL511F). Compounds were tested in duplicate, with 8-point titration. Mean±SD of AlphaLISA units at each compound concentration was used for compound IC50 calculation. The negative control for this experiment was run without peptide stimulation and used a DMSO vehicle wherein no compound of interest was added. The positive control was run with peptide stimulation and used a DMSO vehicle wherein no compound of interest was added. Both the negative and positive controls were run in 8 replicates each. Curve fitting and IC50 calculation for dose response data was performed by GraphPad software 6 or higher (GraphPad Software, San Diego, CA). Dose response data was plotted versus the log of compound concentration and IC50 was determined using 4-parameter logistic (4-PL) curve fitting.

Consider `Cc1cc([C@H](Oc2ccc3c(c2)OCCC3=O)c2ccncc2)ccc1C(N)=O` (single isomer, unassigned) [Example 35b, (*S)-2-methyl-4-(((4-oxochroman-7-yl)oxy)(pyridin-4-yl)methyl)benzamide], for which the IC50 on HLA-DRB1*0401 was determined as 0.83 µM; in test [1] it was 5.2 µM.

On to `Cc1cc(C(N)=O)ccc1[C@@H](Oc1ccc2c(c1)OCCC2=O)c1ccncc1` (single isomer, unassigned) [Example 36b, (*S)-3-methyl-4-(((4-oxochroman-7-yl)oxy)(pyridin-4-yl)methyl)benzamide], for which the IC50 against HLA-DRB1*0401 amounted to 0.57 µM; in test [1], 5.1 µM.

For the compound `C[C@@H]1CC(=O)c2ccc(O[C@H](c3ccncc3)c3ccc(C(N)=O)cc3)cc2O1` (single isomer, unassigned) [Example 39a, 4-((*S)—(((*R)-2-Methyl-4-oxochroman-7-yl)oxy)(pyridin-4-yl)methyl)benzamide], the IC50 on HLA-DRB1*0401 stood at 1.1 µM; in test [1], 14 µM.

Turning to `C[C@H]1CC(=O)c2ccc(O[C@H](c3ccncc3)c3ccc(C(N)=O)cc3)cc2O1` (single isomer, unassigned) [Example 39d, 4-((*S)—(((*S)-2-Methyl-4-oxochroman-7-yl)oxy)(pyridin-4-yl)methyl)benzamide], the IC50 against HLA-DRB1*0401 is 1 µM; in test [1], 15 µM.

For `CC[C@@H]1CC(=O)c2ccc(O[C@H](c3ccncc3)c3ccc(C(N)=O)cc3)cc2O1` (single isomer, unassigned) [Example 41a, 4-((*S)—(((*R)-2-ethyl-4-oxochroman-7-yl)oxy)(pyridin-4-yl)methyl)benzamide], the IC50 against HLA-DRB1*0401 is 1.2 µM; in test [1], greater than 15 µM.

With `C[C@H]1COc2cc(O[C@@H](c3ccncc3)c3ccc(C(N)=O)cc3)ccc2C1=O` (single isomer, unassigned) [Example 44c, 4-((*R)—(((*S)-3-Methyl-4-oxochroman-7-yl)oxy)(pyridin-4-yl)methyl)benzamide], the results for the concentration for half-maximal inhibition (IC50) (against HLA-DRB1*0401; in test [1]) were 1.3 µM and greater than 15 µM, respectively.

Turning to `C[C@H]1COc2cc(O[C@H](c3ccncc3)c3ccc(C(N)=O)cc3)ccc2C1=O` (single isomer, unassigned) [Example 44d, 4-((*S)—(((*S)-3-Methyl-4-oxochroman-7-yl)oxy)(pyridin-4-yl)methyl)benzamide], the figures for the IC50 (against HLA-DRB1*0401; in test [1]) were 0.85 µM and greater than 15 µM, respectively.

With `NC(=O)c1ccc([C@H](Oc2cc(F)c3c(c2)OCCC3=O)c2ccncc2)cc1` (single isomer, unassigned) [Example 51b, (*S)-4-(((5-Fluoro-4-oxochroman-7-yl)oxy)(pyridin-4-yl)methyl)benzamide], the results for the concentration for half-maximal inhibition (IC50) (against HLA-DRB1*0401; in test [1]) were 3.5 µM and 15 µM, respectively.

As to `NC(=O)c1ccc([C@H](Oc2cc3c(cc2F)C(=O)CCO3)c2ccncc2)cc1` (single isomer, unassigned) [Example 52b, (*S)-4-(((6-Fluoro-4-oxochroman-7-yl)oxy)(pyridin-4-yl)methyl)benzamide], the IC50 against HLA-DRB1*0401 turned out to be 0.3 µM; in test [1], 8.5 µM.

On to `Cc1c(O[C@H](c2ccc(Cl)cc2)c2ccc(C(N)=O)cc2)ccc2c1OCCC2=O` (single isomer, unassigned) [Example 57b, (*S)-4-((4-chlorophenyl)((8-methyl-4-oxochroman-7-yl)oxy)methyl)benzamide], for which the IC50 at HLA-DRB1*0401 was 2 µM; in test [1] it was greater than 15 µM.

As for `Cc1c(O[C@@H](c2ccc(C#N)cc2)c2ccc(C(N)=O)cc2)ccc2c1OCCC2=O` (single isomer, unassigned) [Example 59b, (*S)-4-((4-cyanophenyl)((8-methyl-4-oxochroman-7-yl)oxy)methyl)benzamide], the 50% inhibitory concentration (IC50) at HLA-DRB1*0401 was 1.3 µM; in test [1], greater than 15 µM.

Take `Cc1c(O[C@H](c2ccc(Cl)cc2)c2ccc(C(N)=O)cn2)ccc2c1OCCC2=O` (single isomer, unassigned) [Example 63a, (*R)-6-((4-chlorophenyl)((8-methyl-4-oxochroman-7-yl)oxy)methyl)nicotinamide]: the results for the IC50 (against HLA-DRB1*0401; in test [1]) were 1.6 µM and greater than 15 µM, respectively.

For orientation: IC50 means the midpoint of a concentration-inhibition curve. Lower therefore signals inhibition by little substance.
